Laboratory results taken from US20230131808A1, “PEGYLATED INTERFERON TAU AND COMPOSITIONS AND METHODS THEREOF” (priority 2020, published 2023).
pEC50, pIC50: −log10 of the molar value.

Legend:
[1] = Cytotoxicity in Huh7 cells without virus infection (CellTiter Glo); settings: human
Huh7 cells = assay: as above
[2] = test system: Human Coronavirus 229E (hCoV-229E); assay: microbe, parasite or virus in culture; format: cell-based
hCoV-OC43 = assay: HCoV OC43 CPE assay in Huh7 cells; format: cell-based; settings: Betacoronavirus 1, Huh-7

In the case of `CCC(CC)COC(=O)[C@H](C)N[P@](=O)(OC[C@H]1O[C@@](C#N)(c2ccc3c(N)ncnn23)[C@H](O)[C@@H]1O)Oc1ccccc1` [Remdesivir], the CC50 at 7 days [1] was 17.2 µM, the “Average Viability (%)” value (Huh7 cells; 0.046 μM) was 99.99% and the “Average Viability (%)” value (Huh7 cells; 0.137 μM) was 101.58%. For the same compound, the “Average Viability (%)” value (Huh7 cells; 0.412 μM) was 104.10%, the “Average Viability (%)” value (Huh7 cells; 1.235 μM) was 102.28% and the “Average Viability (%)” value (Huh7 cells; 3.704 μM) was 86.91%. For the same compound, the “Average Viability (%)” value (Huh7 cells; 11.11 μM) was 56.84%, the “Average Viability (%)” value (Huh7 cells; 33.33 μM) was 36.88% and the “Average Viability (%)” value (Huh7 cells; 100.00 μM) was 21.77%.
`NC(=O)c1ncn([C@@H]2O[C@H](CO)[C@@H](O)[C@H]2O)n1` [Ribavirin] showed a pIC50 [2] of 4.52.
For `CCN(CC)CCCC(C)Nc1ccnc2cc(Cl)ccc12` (centres unmarked) [chloroquine phosphate], the pEC50 (hCoV-OC43) was 5.51.
